From patent US20160158317A1, “Antimicrobial Peptide Variants and Polynucleotides Encoding Same” (Adenium Biotech A/S, priority 2010, published 2016) come the findings set out here.

SMILES strings stand for the structures. Where a SMILES comes first, the peptide text is derived from it. Bridges are numbered along the chain shown (N, C = ends).

This series can be described thus: Determination of the protein binding (90% serum, 30 kDa filter, HPLC). Type of series: in vitro ADME. The settings on record: serum. The method, then: Protein binding assays were performed as follows. The purified peptides were mixed with 90% serum and centrifuged through a 30 kDa filter. The ultra-filtrate and the non filtrated serum samples were quantified by HPLC measurements and the protein binding was subsequently calculated.

For `CC(C)[C@@H]1NC(=O)CNC(=O)[C@H](CC(N)=O)NC(=O)[C@H](CCCNC(=N)N)NC(=O)[C@H](Cc2ccc(O)cc2)NC(=O)[C@H](C(C)C)NC(=O)[C@@H]2CSSC[C@H](NC(=O)[C@H](C(C)C)NC(=O)[C@H](CCCNC(=N)N)NC1=O)C(=O)N[C@@H](Cc1ccc(O)cc1)C(=O)N[C@@H](CCCNC(=N)N)C(=O)N[C@@H](CCCNC(=N)N)C(=O)N[C@H](C(=O)N[C@@H](CO)C(=O)O)CSSC[C@H](NC(=O)[C@H](Cc1ccccc1)NC(=O)CN)C(=O)NCC(=O)N[C@@H](Cc1c[nH]cn1)C(=O)N[C@@H](C(C)C)C(=O)N2` [compound 144] (H-GFCGHVCVYRNGVRVCYRRCS-OH; disulfide 3-20, 7-16 (inferred); N-terminus and C-terminus assumed), the unbound share (fraction unbound) (as a rule, free concentration divided by total concentration) was 0.32.
As for `CC(C)[C@@H]1NC(=O)CNC(=O)[C@H](CC(N)=O)NC(=O)[C@H](CCCNC(=N)N)NC(=O)[C@H](Cc2ccc(O)cc2)NC(=O)[C@H](C(C)C)NC(=O)[C@@H]2CSSC[C@H](NC(=O)[C@H](C(C)C)NC(=O)[C@H](CCCNC(=N)N)NC1=O)C(=O)N[C@@H](Cc1ccc(O)cc1)C(=O)N[C@@H](CCCNC(=N)N)C(=O)N[C@@H](CCCNC(=N)N)C(=O)N[C@H](C(=O)N[C@@H](CC(N)=O)C(=O)O)CSSC[C@H](NC(=O)[C@H](Cc1ccccc1)NC(=O)CN)C(=O)N[C@@H](CO)C(=O)N[C@@H](Cc1ccc(O)cc1)C(=O)N[C@@H](C(C)C)C(=O)N2` [compound 7] (H-GFCSYVCVYRNGVRVCYRRCN-OH; disulfide 3-20, 7-16 (inferred); N-terminus and C-terminus assumed), the figure is 0.32; as for `CC(C)[C@@H]1NC(=O)CNC(=O)[C@H](CC(N)=O)NC(=O)[C@H](CCCNC(=N)N)NC(=O)[C@H](Cc2ccc(O)cc2)NC(=O)[C@H](C(C)C)NC(=O)[C@@H]2CSSC[C@H](NC(=O)[C@H](C)NC(=O)[C@H](CCCNC(=N)N)NC1=O)C(=O)N[C@@H](Cc1ccc(O)cc1)C(=O)N[C@@H](CCCNC(=N)N)C(=O)N[C@@H](CCCNC(=N)N)C(=O)N[C@H](C(=O)N[C@@H](CC(N)=O)C(=O)O)CSSC[C@H](NC(=O)[C@H](Cc1ccccc1)NC(=O)CN)C(=O)N[C@@H](Cc1c[nH]c3ccccc13)C(=O)N[C@@H](CCCNC(=N)N)C(=O)N[C@@H](C)C(=O)N2` [compound 319] (H-GFCWRACVYRNGVRACYRRCN-OH; disulfide 3-20, 7-16 (inferred); N-terminus and C-terminus assumed), 0.6.
The same measure for `CC(C)[C@@H]1NC(=O)CNC(=O)[C@H](CC(N)=O)NC(=O)[C@H](CCCNC(=N)N)NC(=O)[C@H](Cc2ccc(O)cc2)NC(=O)[C@H](C)NC(=O)[C@@H]2CSSC[C@H](NC(=O)[C@H](C(C)C)NC(=O)[C@H](CCCNC(=N)N)NC1=O)C(=O)N[C@@H](Cc1ccc(O)cc1)C(=O)N[C@@H](CCCNC(=N)N)C(=O)N[C@@H](CCCNC(=N)N)C(=O)N[C@H](C(=O)N[C@@H](CC(N)=O)C(=O)O)CSSC[C@H](NC(=O)[C@H](Cc1ccccc1)NC(=O)CN)C(=O)N[C@@H](Cc1c[nH]c3ccccc13)C(=O)N[C@@H](Cc1ccc(O)cc1)C(=O)N[C@@H](C(C)C)C(=O)N2` [compound 21] (H-GFCWYVCAYRNGVRVCYRRCN-OH; disulfide 3-20, 7-16 (inferred); N-terminus and C-terminus assumed): 0.015.
Compound `CC(C)[C@@H]1NC(=O)CNC(=O)[C@H](CC(N)=O)NC(=O)[C@H](CCCNC(=N)N)NC(=O)[C@H](Cc2ccc(O)cc2)NC(=O)[C@H](C(C)C)NC(=O)[C@@H]2CSSC[C@H](NC(=O)[C@H](C(C)C)NC(=O)[C@H](CCCNC(=N)N)NC1=O)C(=O)N[C@@H](CCCCN)C(=O)N[C@@H](CCCNC(=N)N)C(=O)N[C@@H](CCCNC(=N)N)C(=O)N[C@H](C(=O)N[C@@H](CC(N)=O)C(=O)O)CSSC[C@H](NC(=O)[C@H](Cc1ccccc1)NC(=O)CN)C(=O)N[C@@H](Cc1c[nH]c3ccccc13)C(=O)N[C@@H](Cc1ccc(O)cc1)C(=O)N[C@@H](C(C)C)C(=O)N2` [compound 47] (H-GFCWYVCVYRNGVRVCKRRCN-OH; disulfide 3-20, 7-16 (inferred); N-terminus and C-terminus assumed) showed an unbound share (fraction unbound) of 0.11.
`CC(C)[C@@H]1NC(=O)CNC(=O)[C@H](CC(N)=O)NC(=O)[C@H](CCCNC(=N)N)NC(=O)[C@H](Cc2c[nH]cn2)NC(=O)[C@H](C(C)C)NC(=O)[C@@H]2CSSC[C@H](NC(=O)[C@H](C(C)C)NC(=O)[C@H](CCCNC(=N)N)NC1=O)C(=O)N[C@@H](Cc1c[nH]cn1)C(=O)N[C@@H](CCCNC(=N)N)C(=O)N[C@@H](CCCNC(=N)N)C(=O)N[C@H](C(=O)N[C@@H](CC(N)=O)C(=O)O)CSSC[C@H](NC(=O)[C@H](Cc1ccccc1)NC(=O)CN)C(=O)N[C@@H](Cc1c[nH]c3ccccc13)C(=O)N[C@@H](CC(N)=O)C(=O)N[C@@H](C(C)C)C(=O)N2` [compound 303] (H-GFCWNVCVHRNGVRVCHRRCN-OH; disulfide 3-20, 7-16 (inferred); N-terminus and C-terminus assumed) gave a free fraction (fraction unbound) of 0.57.
As for `CC(C)[C@@H]1NC(=O)CNC(=O)[C@H](CC(N)=O)NC(=O)[C@H](CCCNC(=N)N)NC(=O)[C@H](Cc2ccc(O)cc2)NC(=O)[C@H](C(C)C)NC(=O)[C@@H]2CSSC[C@H](NC(=O)[C@H](C(C)C)NC(=O)[C@H](CCCNC(=N)N)NC1=O)C(=O)N[C@@H](Cc1c[nH]cn1)C(=O)N[C@@H](CCCNC(=N)N)C(=O)N[C@@H](CCCNC(=N)N)C(=O)N[C@H](C(=O)N[C@@H](CC(N)=O)C(=O)O)CSSC[C@H](NC(=O)[C@H](Cc1ccccc1)NC(=O)CN)C(=O)N[C@@H](Cc1c[nH]c3ccccc13)C(=O)N[C@@H](CC(N)=O)C(=O)N[C@@H](Cc1c[nH]c3ccccc13)C(=O)N2` [compound 267] (H-GFCWNWCVYRNGVRVCHRRCN-OH; disulfide 3-20, 7-16 (inferred); N-terminus and C-terminus assumed), the figure is 0.15; as for `CC(C)[C@@H]1NC(=O)CNC(=O)[C@H](CC(N)=O)NC(=O)[C@H](CCCNC(=N)N)NC(=O)[C@H](Cc2ccc(O)cc2)NC(=O)[C@H](Cc2ccc(O)cc2)NC(=O)[C@@H]2CSSC[C@H](NC(=O)[C@H](C(C)C)NC(=O)[C@H](CCCNC(=N)N)NC1=O)C(=O)N[C@@H](Cc1ccc(O)cc1)C(=O)N[C@@H](CCCNC(=N)N)C(=O)N[C@@H](CCCNC(=N)N)C(=O)N[C@H](C(=O)N[C@@H](CC(N)=O)C(=O)O)CSSC[C@H](NC(=O)[C@H](Cc1ccccc1)NC(=O)CN)C(=O)N[C@@H](Cc1c[nH]c3ccccc13)C(=O)N[C@@H](Cc1ccc(O)cc1)C(=O)N[C@@H](C(C)C)C(=O)N2` [compound 25] (H-GFCWYVCYYRNGVRVCYRRCN-OH; disulfide 3-20, 7-16 (inferred); N-terminus and C-terminus assumed), 0.02.
The same measure for `CC(C)[C@@H]1NC(=O)CNC(=O)[C@H](CC(N)=O)NC(=O)[C@H](CCCNC(=N)N)NC(=O)[C@H](Cc2ccc(O)cc2)NC(=O)[C@H](C(C)C)NC(=O)[C@@H]2CSSC[C@H](NC(=O)[C@H](C(C)C)NC(=O)[C@H](CCCNC(=N)N)NC1=O)C(=O)N[C@@H](Cc1c[nH]cn1)C(=O)N[C@@H](CCCNC(=N)N)C(=O)N[C@@H](Cc1c[nH]cn1)C(=O)N[C@H](C(=O)N[C@@H](CC(N)=O)C(=O)O)CSSC[C@H](NC(=O)[C@H](Cc1ccccc1)NC(=O)[C@@H](N)CCCNC(=N)N)C(=O)N[C@@H](Cc1c[nH]c3ccccc13)C(=O)N[C@@H](CC(N)=O)C(=O)N[C@@H](C(C)C)C(=O)N2` [compound 359] (H-RFCWNVCVYRNGVRVCHRHCN-OH; disulfide 3-20, 7-16 (inferred); N-terminus and C-terminus assumed): 0.2; for `CC(C)[C@@H]1NC(=O)[C@@H]2CSSC[C@H](NC(=O)[C@H](CO)NC(=O)[C@H](CCCNC(=N)N)NC(=O)[C@H](CCCCN)NC(=O)CNC(=O)[C@H](CC(N)=O)NC(=O)[C@H](CCCCN)NC(=O)[C@H](Cc3ccc(O)cc3)NC1=O)C(=O)N[C@@H](Cc1ccc(O)cc1)C(=O)N[C@@H](CCCNC(=N)N)C(=O)N[C@@H](CCCNC(=N)N)C(=O)N[C@H](C(=O)N[C@@H](CC(N)=O)C(=O)O)CSSC[C@H](NC(=O)[C@H](Cc1ccccc1)NC(=O)CN)C(=O)N[C@@H](Cc1c[nH]c3ccccc13)C(=O)N[C@@H](Cc1c[nH]cn1)C(=O)N[C@@H](C(C)C)C(=O)N2` [compound 390] (H-GFCWHVCVYKNGKRSCYRRCN-OH; disulfide 3-20, 7-16 (inferred); N-terminus and C-terminus assumed): 0.13.
As for `CC[C@H](C)[C@@H]1NC(=O)[C@H](CCCNC(=N)N)NC(=O)[C@H](C(C)C)NC(=O)CNC(=O)[C@H](CC(N)=O)NC(=O)[C@H](CCCNC(=N)N)NC(=O)[C@H](Cc2ccc(O)cc2)NC(=O)[C@H](C(C)C)NC(=O)[C@@H]2CSSC[C@H](NC1=O)C(=O)N[C@@H](Cc1c[nH]cn1)C(=O)N[C@@H](CCCNC(=N)N)C(=O)N[C@@H](CCCNC(=N)N)C(=O)N[C@H](C(=O)N[C@@H](CC(N)=O)C(=O)O)CSSC[C@H](NC(=O)[C@H](Cc1ccccc1)NC(=O)CN)C(=O)N[C@@H](Cc1c[nH]c3ccccc13)C(=O)N[C@@H](CC(N)=O)C(=O)N[C@@H](C(C)C)C(=O)N2` [compound 248] (H-GFCWNVCVYRNGVRICHRRCN-OH; disulfide 3-20, 7-16 (inferred); N-terminus and C-terminus assumed), the figure is 0.42; as for `CC(C)[C@@H]1NC(=O)CNC(=O)[C@H](CC(N)=O)NC(=O)[C@H](CCCNC(=N)N)NC(=O)[C@H](Cc2ccc(O)cc2)NC(=O)[C@H](C(C)C)NC(=O)[C@@H]2CSSC[C@H](NC(=O)[C@H](C(C)C)NC(=O)[C@H](CCCNC(=N)N)NC1=O)C(=O)N[C@@H](Cc1c[nH]cn1)C(=O)N[C@@H](CCCNC(=N)N)C(=O)N[C@@H](CCCNC(=N)N)C(=O)N[C@H](C(=O)N[C@@H](CC(N)=O)C(=O)O)CSSC[C@H](NC(=O)[C@H](Cc1ccccc1)NC(=O)CN)C(=O)N[C@@H](Cc1c[nH]c3ccccc13)C(=O)N[C@@H](CC(N)=O)C(=O)N[C@@H](C(C)C)C(=O)N2` [compound 70] (H-GFCWNVCVYRNGVRVCHRRCN-OH; disulfide 3-20, 7-16 (inferred); N-terminus and C-terminus assumed), 0.21.
